Where a chain is given by its changes, count along the chain named. pIC50: −log10 of the molar value. Where a name gives a salt, the structure may show the parent alone. Read-outs that look alike come from different tables or passages of the source.
Assays:
Format in all cases: cell-based
KCNJ5^G151R = target: T1, KCNJ5^G151R (Homo sapiens, UniProt P48544, G151R); test: cell-based; details: for G151R maximum inhibition / G151R minimum inhibition / pIC50: 10-point dilution 20 to 0.0391 μM, N=3, four-parameter fit; for % effect (1) / % effect (2) / mean % effect / activity against KCNJ5^G151R in the primary screen / viability at 10 µM: 10 μM; for dose response on KCNJ5^G151R: tested at 1.1, 3.3 and 10 μM
T1 construct: expressed in transfected cells
T1 sequence (P48544 1-419 G151R): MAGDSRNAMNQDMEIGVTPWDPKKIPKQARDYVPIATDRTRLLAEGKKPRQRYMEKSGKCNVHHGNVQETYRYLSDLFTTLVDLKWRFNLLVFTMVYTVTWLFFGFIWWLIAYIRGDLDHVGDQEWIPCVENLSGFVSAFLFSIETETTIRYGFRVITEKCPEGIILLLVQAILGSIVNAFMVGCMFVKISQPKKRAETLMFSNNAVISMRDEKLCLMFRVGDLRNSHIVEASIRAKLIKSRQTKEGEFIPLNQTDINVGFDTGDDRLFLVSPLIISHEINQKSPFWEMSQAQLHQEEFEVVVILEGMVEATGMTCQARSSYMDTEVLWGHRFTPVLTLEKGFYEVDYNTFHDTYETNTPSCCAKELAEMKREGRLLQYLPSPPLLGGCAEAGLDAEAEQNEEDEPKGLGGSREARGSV
Description: (§1) WT or mutant human KCNJ5 cDNAs (Choi et al., 2011, Science 331:768-772) were subcloned into the pcDNA5/FRT/TO vector using BamHI and HindIII. Single copies of WT or mutant human KCNJ5 cDNAs expressed under the control of tetracycline-inducible promoter were introduced into HEK293 cells using the Flp-in T-Rex System (Invitrogen) according to the manufacturer's instructions. Cells were grown in selective media containing 10% Tet-system approved FBS (Clontech) until induction.
(§2) Assay plates were centrifuged and incubated overnight at 37° C. 20 nL was transferred from the compound source plate to the cell assay plate using an Aquarius (Tecan) with a 384-well pin tool (V&P Scientific). The final concentration of compound for screening was 10 μM and the final DMSO concentration was 0.1%. 1 μL of tetracycline (final concentration 1 μg/mL) was added to compound containing and negative control wells by Multidrop Combi to induce expression. 1 μL of media was added to positive control wells. Assay plates were centrifuged and incubated for 72 hours at 37° C., 5% CO2. CellTiter-Glo (Promega) was used to measure cell viability in the assay wells according to the manufacturer's instructions. 10 μL/well of CellTiter-Glo reagent was added to the assay plates using a MultiDrop Combi. The plates were shaken on a Thermomixer R (Eppendorf) at 1100 rpm for 1 minute and incubated in the dark for 10 minutes at room temperature. Luminescence was read on an Envision plate reader (PerkinElmer) with 0.3 second sampling time per well. Raw data (luminescence counts per second) was normalized to percent effect by the formula 100−(((sample−negative control mean)/(positive control mean−negative control mean))*100).
(§3) Data was analyzed using the programs Excel (Microsoft) and Prism (GraphPad). Errors are SD unless otherwise indicated in the legend. Dose-response curves were fitted with a four-parameter logistic equation: F(x)=D+(A−D)/(1+(x/C)^B), with A=minimum inhibition B=Hill's slope C=inflection point D=maximum inhibition Synthesis of Macrolide Derivatives
(§4) Cellular ATP levels were measured as a proxy for cell viability, using a commercially available luciferase assay (Crouch et al., 1993, Proc. Natl. Acad. Sci. U.S.A. 109:2533-2538).
(§5) Conditions were designed to maximize reproducibility and the signal-to-background ratios (S/B) (Zhang et al., 1999, J. Biomol. Screen 4:67-73) comparing ATP level in uninduced and induced cells. Screening was performed in 384-well plates; compounds were added 24 hours after plating, and channel expression was induced immediately after compound addition. ATP levels were measured 72 hours after induction.
Levels of ATP in uninduced and induced cells without added test compound defined 100% and 0% effect, respectively, and served as a proxy for lethality.

KCNJ5^L168R = target: T2, KCNJ5^L168R (Homo sapiens, UniProt P48544, L168R); test: Cell viability assay (ATP, CellTiter-Glo): rescue of KCNJ5^L168R-induced lethality in inducible HEK293 cells; details: for dose response on KCNJ5^L168R: tested at 1.1, 3.3 and 10 μM
T2 construct: expressed in transfected cells
T2 sequence (P48544 1-419 L168R): T1 sequence (P48544 1-419 G151R) with R151G, L168R
Description: as §1, §2, §3, §4, §5

KCNJ5^WT = target: T3, KCNJ5^WT (Homo sapiens, UniProt P48544); test: Membrane potential assay (FLIPR dye) in inducible KCNJ5^WT HEK293 cells; details: 10-point dilution 20 to 0.0391 μM, N=3, four-parameter fit
T3 construct: expressed in transfected cells
T3 sequence (P48544 1-419): T1 sequence (P48544 1-419 G151R) with R151G
Description: as §1, with “Single” for “WT or mutant human KCNJ5 cDNAs (Choi et al., 2011, Science 331:768-772) were subcloned into the pcDNA5/FRT/TO vector using BamHI and HindIII. Single”
20 μL of WT cells were plated into sterile black with clear bottom tissue culture-treated 384-well plates (Corning) at a density of 10000 cells/well using a Multidrop Combi. Assay plates were centrifuged at 500 rpm for 10 seconds and incubated overnight at 37° C. in a humidified 5% CO2 incubator. After the overnight incubation, 1 μL of tetracycline (final conc. 1 μg/mL) was added to all wells by Multidrop Combi to induce KCNJ5. Assay plates were centrifuged at 500 rpm for 10 seconds and incubated overnight at 37° C. in a humidified 5% CO2 incubator. The next day, 10 μL of medium was removed from each well using a PlateMate Plus (Thermo Scientific). 10 μL of Blue Formula FLIPR membrane potential dye (Molecular Devices) was added to cells using a Multichannel pipettor. Assay plates were incubated for 30 minutes. at 37° C. After incubation, 20 nL was transferred twice from the compound source plate to the cell assay plate using an Aquarius with a 384-well pin tool for a total transfer volume of 40 nL and a final DMSO concentration of 0.2%. 1 μL of 20 mM BaCl2 was added to positive control wells using a Multichannel pipettor. The assay plate was incubated 20 minutes at room temperature in the dark.
Changes in membrane potential were detected using a well-established fluorescence-based measure of membrane potential (FIG. 4).

[1] = 10-point dilution 20 to 0.0391 μM, N=3, four-parameter fit
[2] = ATP level 72 h after induction, uninduced = 100%, induced = 0% effect, first of the two runs (primary screen / hit pick)
[3] = ATP level 72 h after induction, uninduced = 100%, induced = 0% effect, second of the two runs (primary screen / hit pick, confirmatory testing)
[4] = mean of primary screen and hit pick
[5] = HEK293, 72 h, mean of primary screen and hit pick, read-out: mean % effect
[6] = HEK293, ATP level 72 h after induction, uninduced = 100%, induced = 0% effect, first of the two runs (primary screen / hit pick), read-out: % effect (1)
[7] = HEK293, ATP level 72 h after induction, uninduced = 100%, induced = 0% effect, second of the two runs (primary screen / hit pick, confirmatory testing), read-out: % effect (2)

Q: Which results are given for CC[C@H]1OC(=O)[C@H](C)[C@@H](O[C@H]2C[C@@](C)(OC)[C@@H](O)[C@H](C)O2)[C@H](C)[C@@H](O[C@@H]2O[C@H](C)C[C@H](N(C)C)[C@H]2O)[C@](C)(O)C[C@@H](C)[C@@H]2N[C@@H](COCCOC)O[C@H]([C@H]2C)[C@]1(C)O [Dirithromycin, dirithromycin]?
A: G151R maximum inhibition (KCNJ5^G151R): 18.29%; G151R minimum inhibition (KCNJ5^G151R): 1.31%; pIC50 (KCNJ5^G151R): 4.80; L168R IC50 (KCNJ5^L168R; [1]): No fit; WT IC50 (KCNJ5^WT): No fit

Q: Which results are given for CC[C@H]1OC(=O)[C@H](C)[C@@H](O[C@H]2C[C@@](C)(O)[C@@H](O)[C@H](C)O2)[C@H](C)[C@@H](O[C@@H]2O[C@H](C)C[C@H](N(C)C)[C@H]2O)[C@](C)(O)C[C@@H](C)C(=O)[C@H](C)[C@@H](O)[C@]1(C)O [Erythromycin C, erythromycin C]?
A: G151R maximum inhibition (KCNJ5^G151R): 75.00%; G151R minimum inhibition (KCNJ5^G151R): 6.72%; pIC50 (KCNJ5^G151R): 5.04; pIC50 (KCNJ5^L168R; [1]): 4.91; L168R maximum inhibition (KCNJ5^L168R; [1]): 18.43%; L168R minimum inhibition (KCNJ5^L168R; [1]): 1.41%; WT IC50 (KCNJ5^WT): No fit

Q: With CC[C@H]1OC(=O)[C@H](C)[C@@H](O[C@H]2C[C@@](C)(OC)[C@@H](O)[C@H](C)O2)[C@H](C)[C@@H](O[C@@H]2O[C@H](C)C[C@H](NC)[C@H]2O)[C@](C)(O)C[C@@H](C)/C(=N\OCOCCOC)[C@H](C)[C@@H](O)[C@]1(C)O [N-demethyl Roxithromycin, N-demethyl roxithromycin] as the compound, how does the G151R maximum inhibition (KCNJ5^G151R) read?
A: 96.20%

Q: What about the G151R minimum inhibition (KCNJ5^G151R) of the same compound?
A: 4.50%

Q: What about the pIC50 (KCNJ5^G151R) of the same compound?
A: 6.09

Q: What about the pIC50 (KCNJ5^L168R; [1]) of the same compound?
A: 5.93

Q: What about the L168R maximum inhibition (KCNJ5^L168R; [1]) of the same compound?
A: 76.95%

Q: And the L168R minimum inhibition (KCNJ5^L168R; [1])?
A: 1.12%

Q: And the “dose response on KCNJ5^L168R” value (KCNJ5^L168R)?
A: showed a dose response

Q: What about the “WT IC50” value (KCNJ5^WT) of the same compound?
A: No fit

Q: With C1CCC(N=C(NC23CC4CC(CC(C4)C2)C3)N2CCOCC2)CC1.Cl [YU224116, U-37883A-HCl] as the compound, how does the “% effect (1)” value (KCNJ5^G151R; [2]) read?
A: 49.9%

Q: And the “% effect (2)” value (KCNJ5^G151R; [3])?
A: 65.8%

Q: And the mean % effect (KCNJ5^G151R; [4])?
A: 57.9%

Q: What about the “dose response on KCNJ5^G151R” value (KCNJ5^G151R) of the same compound?
A: potent inhibitors

Q: And the “dose response on KCNJ5^L168R” value (KCNJ5^L168R)?
A: either high IC50 values or low maximum inhibition

Q: How did the “dose response on KCNJ5^G151R” value (KCNJ5^G151R) turn out when CCN(CC)CCN1c2ccccc2Sc2ccc3ccccc3c21 [NSC18883] was run?
A: potent inhibitors

Q: And the “dose response on KCNJ5^L168R” value (KCNJ5^L168R)?
A: either high IC50 values or low maximum inhibition

Q: With CC[C@@H]1C=CC=CC[C@H](C)[C@@H](O)[C@@H](C)C(=O)[C@H](C)[C@@H](O)[C@H](C)C(=O)[C@H](C)[C@@H](O)[C@H](C)C=CC(=O)O[C@H]2[C@@H](C)[C@@H](CC1)O[C@@]1(CC[C@@H](C)[C@@H](C[C@H](C)O)O1)[C@@H]2C [oligomycin C] as the compound, how does the “activity against KCNJ5^G151R in the primary screen” value (KCNJ5^G151R) read?
A: little or no activity

Q: Cc1oc2ccc(O)c(CN3CCC(C)CC3)c2c1C(=O)Nc1ccccc1 [YU164362] was tested. Which “% effect (1)” value (KCNJ5^G151R; [2]) did it give?
A: 62.7%

Q: What about the “% effect (2)” value (KCNJ5^G151R; [3]) of the same compound?
A: 39.1%

Q: And the mean % effect (KCNJ5^G151R; [4])?
A: 50.9%

Q: What does the source list for CN(C)C(=O)C(CCN1CCC(O)(c2ccc(Cl)cc2)CC1)(c1ccccc1)c1ccccc1 [YU224113, Loperamide-HCl]?
A: viability at 10 µM (KCNJ5^G151R; [5]): 41.4%; viability at 10 µM (KCNJ5^G151R; [6]): 35.2%; viability at 10 µM (KCNJ5^G151R; [7]): 47.6%

Q: For Cc1ccc(NC(=O)c2c(C)oc3ccc(O)c(CN4CCCCCC4)c23)cc1 [YU164427], which “% effect (1)” value (KCNJ5^G151R; [2]) is on record?
A: 36.0%

Q: What about the “% effect (2)” value (KCNJ5^G151R; [3]) of the same compound?
A: 48.0%

Q: And the mean % effect (KCNJ5^G151R; [4])?
A: 42.0%

Q: With c1cncnc1 [YU221968, Pyrimidine] as the compound, how does the viability at 10 µM (KCNJ5^G151R; [5]) read?
A: 81.9%

Q: What about the viability at 10 µM (KCNJ5^G151R; [6]) of the same compound?
A: 77.2%

Q: And the viability at 10 µM (KCNJ5^G151R; [7])?
A: 86.6%

Q: What does the source list for CC(COc1ccccc1)N(CCCl)Cc1ccccc1 (centres unmarked) [YU225090, Phenoxybenzamine-HCl]?
A: viability at 10 µM (KCNJ5^G151R; [5]): 59.9%; viability at 10 µM (KCNJ5^G151R; [6]): 67.8%; viability at 10 µM (KCNJ5^G151R; [7]): 52.1%

Q: Which “activity against KCNJ5^G151R in the primary screen” value (KCNJ5^G151R) does the source give for CO[C@@H]1[C@@H](O[C@@H]2O[C@H](C)[C@@H](O[C@H]3C[C@@](C)(O)[C@@H](OC(=O)CC(C)C)[C@H](C)O3)[C@H](N(C)C)[C@H]2O)[C@@H](CC=O)C[C@@H](C)[C@@H](O)/C=C/C=C/C[C@@H](C)OC(=O)C[C@H]1OC(C)=O [josamycin] here?
A: little or no activity

Q: Which results are given for CCCCc1oc2ccccc2c1C(=O)c1cc(I)c(OCCN(CC)CC)c(I)c1 [YU039827, Amiodarone hydrochloride]?
A: viability at 10 µM (KCNJ5^G151R; [5]): 71.8%; viability at 10 µM (KCNJ5^G151R; [6]): 77.8%; viability at 10 µM (KCNJ5^G151R; [7]): 65.9%

Q: Cc1oc2ccc(O)c(CN3CCCCC3C)c2c1C(=O)Nc1ccccc1 (centres unmarked) [YU164343] was tested. Which “% effect (1)” value (KCNJ5^G151R; [2]) did it give?
A: 55.9%

Q: What about the “% effect (2)” value (KCNJ5^G151R; [3]) of the same compound?
A: 64.5%

Q: And the mean % effect (KCNJ5^G151R; [4])?
A: 60.2%

Reference: patent US11484543B2, “Compositions and methods for diagnosing and treating diseases and disorders associated with mutant KCNJ5” (The Rockefeller University, priority 2017, dated 2022)
